≈ marks a conversion by molar mass, not a printed value.

One data set is described as follows: Kinetic solubility. The settings on record: aqueous buffer, kinetic from dmso stock, PBS pH 7.4, 37 °C, 100 µM nominal. Format: physicochemical. The method, then: Test compound (10 mM, 100% DMSO) was diluted separately into aqueous buffer (100 µM; PBS pH 7.4) and DMSO at various concentrations (1000, 100, 10, 1, 0.1 µM). The solutions were then incubated at 37 °C for 90 min and centrifuged (16000xg, 5 min). An aliquot of each supernatant was analyzed by UV/Vis (if possible) or LC-MS/MS. A standard curve was made by plotting the known amount of analyte per standard in DMSO vs. absorbance or chromatographic peak area. Kinetic solubility (mM) was calculated using the trendline equation with maximum absorbance or chromatographic peak area observed in the aqueous sample.

In data set [1] the test system is sCLU secreted from human U-87 MG glioblastoma cells. Nature of the data set: Human sCLU AlphaLISA on supernatant of U-87 MG cells (HTS, re-test, dose response). Format: cell-based. The settings on record: Homo sapiens; U-87 MG cells, 30 h, AlphaLISA of supernatant; read-out: EC50 for sCLU increase. The method, then:
(§1) Cell culture supernatant (2 μL) was added to a 384-well proxy plate preloaded with AlphaLISA HiBlock buffer (2 µL, 1X, CAT#AL004C, Perkin Elmer). Then an anti-sCLU antibody mixture (2 µL, mAb J84, biotinylated (10 nM, Cat# 3717-6-1000, Mabtech) and mAb CLU aa 22-227 (Cat#AF7084, R&D Systems), Acceptor bead conjugated (50 µg/mL, Cat#6772001, Perkin Elmer)) was added and incubated at room temperature for 1 hour. AlphaScreen Streptavidin Donor beads (2 µL, Cat#6760002S, Perkin Elmer) were added, incubated for an additional 30 min in the dark, and the plate was read in an Envision plate reader.
Human glioblastoma U-87 MG cells were proliferated in EMEM with 10% FBS and 1% P/S (complete medium) in 10 cm dishes until approximately 90% confluent. Following trypsinization, a suspension of 2 × 10^5 cells/mL (25 µL) were added to 384-well plates containing complete medium (25 µL) and library compounds from 9 plates (5 µM). After incubation for 30 h at 37 °C and 5% CO2, 2 μL of cell culture supernatant were analyzed via human sCLU AlphaLISA as described above. Cell culture medium and cells were added to the 384-well plates using the MultiDrop. The BioMek FX was used to pin the drugs and transfer the cell culture supernatant. The MANTIS liquid handler was used to added human sCLU AlphaLISA reagents.
Human glioblastoma U-87 MG cells were proliferated in EMEM with 10% FBS and 1% P/S (complete medium) in 10 cm dishes until approximately 90% confluent. […] After incubation for 30 hours at 37 °C and 5% CO2, 2 μL of cell culture supernatant were analyzed via human sCLU AlphaLISA as described above.
(In general: Alpha assays give light when donor and acceptor beads are brought close together.)

Data set [2] can be described thus: Liver microsome stability assay. In kind it is in vitro ADME. To be noted: pH 7.4; human liver microsomes 0.5 mg/mL, NADPH, 37 °C, up to 120 min; read-out: Microsomal Stability t1/2. On the procedure: An aliquot (1 µL) of test compound (1 mM, 100% DMSO) was added to an aqueous liver microsome solution (1000 µL, PBS pH 7.4, 0.5 mg/mL human liver microsomes (Thermo Fisher Scientific, Cat#HMMPL), 2 mM NADPH, 2 mM MgCl2) and incubated at 37 °C for 120 min. Aliquots (50 µL) of the microsome solution were taken at various time points (0, 5, 10, 15, 30, 60, 90, 120 min) and added to a reaction quenching solution (200 µL 100% Acetonitrile) containing an internal standard. Solutions were clarified by centrifugation (16,000 x g, 5 min), and the supernatants were transferred to new tubes and lyophilized. Samples were reconstituted in 100 µL of 50/50/0.1 (Water/Acetonitrile/Formic Acid) prior to analysis via liquid chromatography-tandem mass spectrometry (LC-MS/MS). Chromatographic peak areas normalized to the internal standard were plotted at each time point and the half-life (t1/2) of compound in liver microsomes was determined by using the trendline equation to calculate the time at which compound abundance was 50% of that at time point 0 (t0).
For orientation: Liver microsomes are a subcellular fraction often used to study metabolism.

A further data set has as its system 3xTg-AD mice. Nature of the data set: Barnes maze assessment of spatial learning and memory. In kind it is in vivo, mouse. The settings on record: oral 15 mg/kg BID, 6 weeks; significant on Day 3 of training and in the 48-hour probe. The method, then:
Male and female 3-month-old mice were administered DDL-357 via pipette feeding at a dose of 15 mg/kg BID (30 mg/kg/day). Mice were weighed before the first dose for the calculation of volume to be administered. The formulation used comprised DDL-357 as a 15 mg/mL solution dissolved in a strawberry flavored solution (propylene glycol/water/strawberry syrup, 2/1/1, v/v/v). ApoE4TR-5XFAD mice (7 mice, 3 females & 4 males-vehicle; 7 mice, 4females and 3 males – DDL357) were dosed for two weeks. 3xTg-AD mice (13 mice, 5 females & 8 males-vehicle; 13 mice, 4 females and 9 males- DDL357) were dosed for six weeks before entering Barnes Maze testing. At end of study, mice brain tissue and plasma were collected after euthanasia and perfusion. […]
Barnes Maze testing was performed as describe by Attar et al. Briefly, in a room with visual cues on the walls, mice are introduced in a circular maze containing 20 holes where 19 holes are closed during training and all 20 holes are closed during the probe trials. […] During the probe days, the target hole is closed, and spatial memory of the mouse is determined during a 90 s probe trial. […] Over the course of the training and probe trials, the software-calculated parameters included, but were not limited to, total distance traveled, speed, number of holes visited, latency to visiting the target/escape hole, percent time spent in the four quadrants of the maze.

Another data set concerns sCLU in SH-SY5Y cells. Nature of the data set: sCLU levels in SH-SY5Y cells. In kind it is cell-based, human. The settings on record: SH-SY5Y cells (Fig. S9A). The method, then: as §1

The term solubility (kinetic) denotes solubility judged after dilution from a stock solution rather than from solid. As a reminder, the EC50 is the concentration giving half of the maximal effect. In turn, `Cc1sc2c(c1C)C(c1ccc(Cl)cc1)=N[C@@H](CC(=O)OC1COC1)c1nnc(C)n1-2` [DDL-356] showed a kinetic solubility at 90 min in the data set “Kinetic solubility” greater than 100 µM. In addition, the EC50 in data set [1] was determined as 178 nM. The half-life at 1 µM in data set [2] stood at 1.25 h.
Consider `Cc1sc2c(c1C)C(c1ccc(Cl)cc1)=N[C@@H](CC(=O)OC1CC1)c1nnc(C)n1-2` [DDL-357], for which, in the data set “Kinetic solubility”, the kinetic solubility at 90 min was 80 µM (≈ 35.3 µg/mL). The EC50 in data set [1] worked out at 223 nM. In addition, the half-life at 1 µM in data set [2] worked out at 1.02 h. Besides, the “Barnes maze performance (latency to escape hole)” value in the data set with 3xTg-AD mice was “performed better overall during both the training and probe phases”. Moreover, the sCLU levels entry with sCLU in SH-SY5Y cells was “increasing sCLU”.

(Values after publication PMC12048343, “Discovery of a small molecule secreted clusterin enhancer that improves memory in Alzheimer’s disease mice” (npj Drug Discovery, 2025).)
